The test system of series [1] is 5-FU-induced mucositis. In words: In vivo anti-mucositis activity (5-FU, buccal pouch wound). Further details: species or system Syrian golden hamsters. The note with it: hamster, subcutaneous once a day Day 0 to Day 5; Compound 1 36, 72, 144 mg/kg; Compound 3 0.5, 5.0, 50.0 mg/kg; dose-dependent. As to the method:
Twenty young Syrian golden hamsters, 7 to 8 weeks old weighing 90 to 130 g, were numbered and randomly divided into five groups (4 hamsters each group).
Each hamster in the five groups was punched at the right buccal pouch mucosa with a skin puncher on Day 0 to give a 6 mm diameter wound. Four groups were intraperitoneally administered with 5-FU at 20 mg/kg twice at Day 0 and one group was used as a control without any treatment. […] Wounds were examined macroscopically and microscopically 0.5, 1, 2, 3, 4, 5, and 6 days after the punching. The hematological parameters, serum biochemistry, extents of inflammatory cell infiltration, sizes of hemorrhagic areas, and presence of ulcers and abscesses were recorded. After Day 6, all of the hamsters were anesthetized with isoflurane (2-chloro-2-difluoromethoxy-1,1,1-trifluoro-ethane) for macroscopic and histological analysis and Western blot analysis.

The subject of series [2] is IMR90 cells. In words: In vitro wound healing activity (scrape wound, cell migration). It counts as cell-based. The conditions noted are these: 24 hours, Compound 1 0.1, 0.5, 1 mM, Compound 3 0.05, 0.5, 1 μM. How it is done:
The wound healing activities of Compounds 1 and 3 were in vitro assessed by the method provided in Valster et al., Methods, 2005, 37, 208-215 and Rodriguez et al., “Methods in Molecular Biology” in Cell Migration: Developmental Methods and Protocols, vol. 294, Ed by Guan et al. Humana. Press Inc.
IMR90 cells were seeded on a six-well culture dish and grown in MEM medium with 10% FBS to confluence in the presence of serum. The growth medium (MEM with 10% FBS) was then replaced with a serum-free medium (MEM without FBS). After starved for 24 hours, wounds were made by scraping using a P1000 pipette tip. […] The wounds were observed by a phase contrast microscopy using an inverted microscope. Images were taken at areas flanking the intersections of the wounds and the marker lines at regular intervals over a period of 24 hours. These images were analyzed through a digital imaging system using Image-Pro Plus® (Media Cybernetics, Silver Spring, Md.) to determine the position of the migrating cells at the wound edges. The cell migration distance was calculated by substracting the width of the wound at each interval from its initial width.

In series [3] the target is histone deacetylase (HDAC). In words: HDAC inhibition assay (Fluor de Lys fluorescent assay, HeLa lysate). It is filed as biochemical. The conditions noted are these: mantissa in r5, exponent and unit in r6. How it is done: The histone deacetylase (HDAC) activity was measured in HeLa lysate suspensions using a Fluor de Lys™ fluorescent assay system (Biomol, Enzo Life Sciences; PA, USA) with some modification as described previously (Pflum et al., 2007). In brief, HeLa lysate (1.5 μl) were preincubated in the presence of test compound or vehicle (DMSO, 0.2% v/v) at 30° C. for 10 minutes, therefore Fluor de Lys™ substrate (125 μM) was added and incubated at 37° C. under shaking for 45 minutes. Finally, the developer reagent (95 μl, 1×) was immediately added to the same aliquot of the reaction mixture for another 10 minutes. The extent of deacetylated substrate formation was monitored by a microplate fluorescence reader (Thermo Varioskan Flash, Thermofisher; MA, USA) to determine the fluorescence intensity (excitation at 360 nm, emission at 460 nm). The results were expressed as the percent inhibition of the rate of deacetylated substrate formation on the reacting interval. […] See Bieliauskas et al., Bioorg. Med. Chem. Lett., 2007, 17: 2216-2219.

Series [4] relates to COX-2. In words: In vitro COX-2 protein expression (Western blot). It is filed as cell-based. The note with it: IMR90 cells; 0.05-1.0 μM; dose-dependent. As to the method: To detect COX-2 protein expression, Western blot analysis was performed as follows. Briefly, Compound 3-treated IMR90 cells, stimulated by wounds (scraping using a P1000 pipette tip) and non-stimulated, were collected and lysed in 1× lysis buffer. Protein concentrations of these lysed cells were measured using Bio-Rad quantification assay (Bio-Rad Laboratory, CA). Protein extracts (20 μg) were subjected to electrophoresis on a 10% SDS-PAGE and transferred to PVDF membrane. The antibody recognizing COX-2 was obtained from Epitomics (Burlingame, Calif.). The antibody recognizing β-actin was from obtained Sigma (St. Louis, Mo.). All antibodies were rabbit polyclonal antibodies except for the β-actin antibody, which was a mouse monoclonal antibody. Secondary antibodies were anti-rabbit IgG and anti-mouse IgG (horseradish-peroxidase linked antibodies), respectively (Amersham Biosciences, Piscataway, N.J.). Primary antibodies were used at a 1:1,000 dilution and secondary antibodies were used at a 1:5,000 dilution in a solution containing 5% BSA in TBS-T. Immunoreactive proteins were detected using the enhanced chemiluminescence light (ECL) detecting kit (Millipore).

Where only a bound is given, the exact number is not on record here.

`O=C(CCCc1ccccc1)NO` [Compound 1, N-hydroxy-4-phenylbutanamide]: in series [1], the “5-FU-induced mucositis in wound areas” value is reported as “reduced 5-FU-induced mucositis”. The wound healing entry in series [2] is “promoted wound healing”. In the case of `CC(C)(C(=O)NO)C(O)Cc1ccccc1` (stereo not shown) [Compound 2, N,3-dihydroxy-2,2-dimethyl-4-phenylbutanamide], the melting point was 95 to 96 °C. As for `CC(C)(C)OC(=O)N[C@H](Cc1ccc(OCc2ccccc2)cn1)C(=O)Nc1ccc(CCCC(=O)NO)cc1` [Compound 3, (R)-tert-butyl 3-(5-(benzyloxy)pyridin-2-yl)-1-(4-(4-(hydroxylamino)-4-oxobutyl)phenylamino)-1-oxopropan-2-ylcarbamate], the “5-FU-induced mucositis in wound areas” value in series [1] was “reduced 5-FU-induced mucositis”. The compound further had an IC50 in series [3] of 398 nM. The COX-2 protein expression result in series [4] is recorded as “inhibited COX-2 protein expression”. Also, the wound healing result in series [2] is on record as “promoted wound healing”. On to `CC(C)(C)OC(=O)NC(Cc1ccc(O)cn1)C(=O)Nc1ccc(CCCC(=O)NO)cc1` (stereo not shown) [Compound 4, tert-butyl-1-(4-(4-(hydroxyamino)-4-oxobutyl)phenylamino)-3-(5-hydroxypyridin-2-yl)-1-oxopropan-2-ylcarbamate], for which the melting point lay within 166 to 167 °C. The IC50 in series [3] was 4130 nM. For `NC(Cc1ccc(OCc2ccccc2)cn1)C(=O)Nc1ccc(CCCC(=O)NO)cc1` (stereo not shown) [Compound 5, 4-(4-(2-amino-3-(5-(benzyloxy)pyridin-2-yl)propanamido)phenyl)-N-hydroxybutanamide], the melting point was above 300 °C. Take `NC(Cc1ccc(O)cn1)C(=O)Nc1ccc(CCCC(=O)NO)cc1` (stereo not shown) [Compound 6, 4-(4-(2-amino-3-(5-hydroxypyridin-2-yl)-propanamido)phenyl)-N-hydroxybutanamide]: the melting point was 230 °C (dec.). In turn, `CC(C)(C)OC(=O)NC(Cc1ccc(OCc2ccccc2)cn1)C(=O)NCc1ccc(C(=O)NO)cc1` (stereo not shown) [Compound 7, tert-butyl 3-(5-(benzyloxy)pyridin-2-yl)-1-(4-(hydroxycarbamoyl)benzylamino)-1-oxopropan-2-ylcarbamate] came in with a melting point of 106 to 108 °C. For the same compound, the IC50 in series [3] came to 1320 nM.
